Assays:
[1] = Dadic 1984; cited from earlier work
[2] = Trained panel flavor evaluation, light beer, forced aging; settings: 5 ppm, 6 days 32° C.; for preservation of fresh flavor (words): light beer
Protocol: Separate solution of pure rosmarinic acid, pure carnosol and pure carnosic acid were prepared in ethanol as previously.
The light beer used in this study was approximately one month old and was purchased at a local market. Bottle additions were done as in Example 1.
The bottles were placed in a heated room at 32±1° C. in the dark. After the allotted aging time, the bottles of beer were transferred to a dark refrigerator and stored at approximately 2° to 4° C. until they were analyzed. Additional bottles from the same code were kept unopened in 2° to 4° C. storage. These unopened samples from the same beer code were labeled “Fresh Control” used to provide fresh samples for the trained panel.
At the appropriate times, a trained 7-member panel evaluated the beers. […] Five beers were evaluated at the session—Fresh Control, Aged No Addition, and Aged containing each one of the Labiatae treatments. The overall preference rank, the character and intensity of the aroma, the levels of paper/cardboard aroma and flavor, sour or off flavors, hang and astringency and bitterness quality and intensity were evaluated.

[3] = DCIP redox potential of light beer with carnosol; assay type: physicochemical; settings: for DCIP Redox Potential: 2 to 4° C. for 1 day
Protocol: A 2% solution of carnosol, isolated from sage extract, was prepared by weighing 200 mg pure carnosol and bringing to 10 mL with pure ethanol. Bottles were dosed at 10 and 20 ppm carnosol with our standard bottle addition technique of opening, fobbing to exclude air, and crowning.
Bottles were stored at 2 to 4° C. for 1 day before analysis. Standard DCIP and DPPH measurements were taken.

[4] = DPPH number of light beer with carnosol; assay type: physicochemical; settings: for DPPH No.: 2 to 4° C. for 1 day
Protocol: To perform the test, about 0.04 g of DPPH was weighed to the nearest 0.1 mg in a 100 mL volumetric, recording the exact weight of DPPH. The DPPH was dissolved in methanol and methanol was added to bring the volume to the 100 mL mark. The solution was sonicated to facilitate dissolution. The beers to be measured were opened and 12 mL of each was poured into separate 15 mL centrifuge tubes, making sure that the volumes in all tubes were equal. The analyses were done in triplicate for each beer. An extra beer sample served as a spectrophotometer blank. The beer was degassed by centrifuging it for 15 min at 6,000 rpm. Into each of two 25 mL flasks was pipeted 5 mL of the pH 4.5 water-ethanol buffer. The spectrophotometer wavelength was set to 531 nm and a buffered water blank was zeroed. 1.0 mL of DPPH solution was added to the water buffer, which was swirled at the same time a timer was started. Just before 10 minutes had elapsed, the sample was transferred to a cuvette and the absorbance (ABL) was measured. The analysis was duplicated with another buffer. For accuracy it is necessary that great care be taken to add exactly 1 mL reagent. It is also important to swirl (mix) the samples consistently as the assay is sensitive to oxygen and to the amount of reagent used. Degassed beer was used to obtain a baseline at 531 nm. After centrifugation 5 mL of the beer was transferred into the appropriate labeled 25 mL flask. 1.0 mL of DPPH solution was added, the solution was swirled and the timer was started. The Absorbance (A531) of the beer sample was recorded. This process was repeated for all samples. To eliminate any possible prejudice in order of analysis, samples were analyzed randomly. The following formula was used to calculate the amount of DPPH which reacts with 5 mL of beer: μmol DPPH=((1−A531/ABL)×(g DPPH/394))×10^6
A 2% solution of carnosol, isolated from sage extract, was prepared by weighing 200 mg pure carnosol and bringing to 10 mL with pure ethanol. […]

[5] = Walter et al. 1997; cited from earlier work

COc1ccc(O)c(C(C)(C)C)c1 [BHA]
effectiveness as antioxidant for beer [1]: ineffective

Cc1cc(C(C)(C)C)c(O)c(C(C)(C)C)c1 [BHT]
effectiveness as antioxidant for beer [1]: ineffective

CC(C)c1cc2c(c(O)c1O)[C@@]13CCCC(C)(C)[C@@H]1C[C@@H]2OC3=O [CN, carnosol]
panelists' preference for treated sample over Aged No Addition sample [2]: 7 of 7 panelists preferred | preservation of fresh flavor (words) [2]: very significantly retards the rate of staling | preservation of fresh flavor (words) ([2]; listed as Carnosol): significant, positive impact on preserving fresh flavor | effect on redox potential by DCIP method [3]: does not enhance the redox potential of beer | DCIP Redox Potential ([3]; 10 ppm Carnosol): 19.6 | DCIP Redox Potential ([3]; 20 ppm Carnosol): 19.6 | effect on beer's ability to reduce DPPH [4]: does not enhance a beer's ability to reduce DPPH | DPPH No. ([4]; 10 ppm Carnosol): 33.1 μmol DPPH | DPPH No. ([4]; 20 ppm Carnosol): 37.0 μmol DPPH

O=c1c(O)c(-c2ccc(O)c(O)c2)oc2cc(O)cc(O)c12 [quercitin]
effectiveness in standardized antioxidant assays [5]: ineffective

catechin
effectiveness in standardized antioxidant assays [5]: ineffective

Source: patent US20050058745A1, “Use of Labiatae herb preparations for extending the flavor shelf life of malt beverages” (priority 2003, published 2005)
